≈ marks a conversion by molar mass, not a printed value. Where “and” joins values, the source holds several entries; their conditions need not be identical. Identical values can stand only once. Like-named read-outs stand apart in the source and are kept apart here.
Columns and labels:
[1] = test system: T. cruzi strain A1 epimastigotes; assay: Trypanocidal activity, T. cruzi epimastigotes, A1 strain (resazurin); type: cell-based, Trypanosoma cruzi; settings: 48 h
[2] = test system: L. mexicana MHOM/MX/2017/UABJO17FCQEPS promastigotes; assay: Leishmanicidal activity, L. mexicana promastigotes, FCQEPS isolate (MTT); type: cell-based, Leishmania mexicana; settings: Leishmania mexicana, 48 h, FCQEPS strain
Procedure: (§1) For leishmanicidal assays, the reference strain (MNYC/BZ/62/M379) and the isolate (MHOM/MX/2017/UABJO17FCQEPS) of L. mexicana were used. Promastigotes were cultured in RPMI 1640 medium supplemented with 10% FBS, 100 U/mL penicillin-100 […] streptomycin, and glutamine (2 mM). 100 µL parasites (5 × 10^5/mL) were added in a 96-well plate, and 100 µL of appropriate concentrations (0.78 to 200 µM) of each sample dissolved in DMSO and incubated for 48 h at 26 °C. Wells containing promastigotes with DMSO 0.2% were used as a negative control, and the reference drug glucantime was included as the positive control. The 3-(4,5-Dimethylthiazol-2-yl)-2,5-diphenyltetrazolium bromide (MTT) was used to measure metabolic activity. The IC50 values were calculated with the probit statistical tool. All samples were evaluated in triplicate in three independent experiments.

[3] = test system: L. mexicana MNYC/BZ/62/M379 promastigotes; assay: Leishmanicidal activity, L. mexicana promastigotes, M379 strain (MTT); type: cell-based, Leishmania mexicana; settings: 48 h
Procedure: as §1

[4] = test system: T. cruzi NINOA (MHOM/MX/1994/NINOA) strain epimastigotes; assay: Trypanocidal activity, T. cruzi epimastigotes, NINOA strain (resazurin); type: cell-based, Trypanosoma cruzi; settings: 48 h
[5] = test system: M. tuberculosis H37Rv (ATCC 27294); assay: Anti-Mycobacterium activity, microplate Alamar Blue Assay (MABA); type: cell-based, Mycobacterium tuberculosis; settings: H37Rv strain, minimum concentration achieving 90% inhibition; for MIC: Mycobacterium tuberculosis
Procedure: The reference strain H37Rv (ATCC 27294) of M. tuberculosis was utilized to assess anti-M. tuberculosis activity using the microplate Alamar Blue Assay (MABA), as previously reported. Samples underwent evaluation in triplicate independent experiments. Isoniazid, rifampicin, moxifloxacin, and linezolid were included as reference drugs, and the minimum drug concentration that achieved 90% inhibition was recorded as the minimum inhibitory concentration (MIC).

[6] = Cytotoxicity on macrophages (MTT); type: cell-based, mouse; settings: mouse
Procedure: Cytotoxicity was assessed on J774.2 mouse macrophage cells (ATCC® TIB-67, ATCC, Manassas, VA, USA). Cells were cultured in RPMI medium supplemented with 10% SFB, 100 U µg/mL penicillin-100 mg/mL streptomycin, and glutamine (2 mM) at 37 °C and in a 5% CO2 atmosphere. A known concentration of cells (1 × 10^6/mL) was incubated with the compounds at different concentrations (0.78 to 200 µM) for 48 h at 37 °C in a CO2 atmosphere (5%). Wells containing cells treated with 0.2% DMSO were used as a negative control. MTT was employed to evaluate the metabolic activity. Next, the cell viability was calculated (%), and the cytotoxic concentration (CC50) was determined with probit analysis. All samples were evaluated in triplicate in three independent experiments.

[7] = Cytotoxicity (CC50) Macrophages J774.2

In the case of O=C(N/N=C/c1ccc2c(c1)OCCO2)c1ccc(O)cc1 [Nfz-21], the IC50 ([1]; Trypanosoma cruzi) is reported as 49 ± 2.1 µM, the IC50 [2] is reported as over 200 µM and the IC50 ([3]; Leishmania mexicana) is reported as 71.5 ± 4.9 µM. The “IC50 T. cruzi NINOA” value [4] was “loss of the activity”, the IC50 ([4]; Trypanosoma cruzi) was over 100 µM and the MIC [5] was 68.7 µg/mL (≈ 230 µM). For the same compound, the CC50 at 48 h [6, 7] was over 100 µM.

Cc1ccc(/C=N/NC(=O)c2ccc(O)cc2)cc1 [Nfz-7] showed an IC50 [1] of 75.2 ± 8.8 µM, an IC50 ([1]; Trypanosoma cruzi) of over 70 µM and an IC50 [2] of 103 ± 2.1 µM. For the same compound, the IC50 [4] was 26 ± 2.9 µM, the IC50 ([4]; Trypanosoma cruzi) was 26 µM and the MIC [5] was 98.3 µg/mL (≈ 387 µM). It also gave a CC50 at 48 h [6, 7] of 91.7 ± 5.1 µM.

For O=C(N/N=C/c1ccc(F)cc1)c1ccc(O)cc1 [Nfz-15], the IC50 [1] was 32.6 ± 2.8 µM, the IC50 ([1]; Trypanosoma cruzi) was under 50 µM and the IC50 [2] was 102 ± 2.7 µM. For the same compound, the IC50 [3] was 35.1 ± 4.7 µM, the IC50 ([3]; Leishmania mexicana) was about 30 µM and the “IC50 T. cruzi NINOA” value [4] was “loss of trypanocidal activity”. The IC50 ([4]; Trypanosoma cruzi) was over 100 µM, the MIC [5] was over 100 µg/mL and the CC50 at 48 h [6, 7] was 74 ± 3.4 µM.

In the case of COc1ccccc1/C=N/NC(=O)c1ccc(O)cc1 [Nfz-12], the IC50 ([1]; Trypanosoma cruzi) is reported as over 100 µM, the IC50 [2] is reported as 60.3 ± 4.7 µM and the IC50 [3] is reported as 11.5 µM and 11.6 µM. For the same compound, the IC50 ([3]; Leishmania mexicana) was under 20 µM, the “IC50 T. cruzi NINOA” value [4] was “inactivity” and the IC50 ([4]; Trypanosoma cruzi) was over 100 µM. It also gave an MIC [5] of over 100 µg/mL and a CC50 at 48 h [6, 7] of 76.5 ± 3.6 µM.

For O=C(N/N=C/c1ccc(Br)cc1)c1ccc(O)cc1 [Nfz-17], the IC50 [1] was 33.6 ± 3.9 µM, the IC50 ([1]; Trypanosoma cruzi) was under 50 µM and the IC50 [2] was 52.1 ± 4.8 µM. For the same compound, the IC50 [3] was 62 ± 2.5 µM, the IC50 ([3]; Leishmania mexicana) was over 60 µM and the “IC50 T. cruzi NINOA” value [4] was “loss of trypanocidal activity”. The IC50 ([4]; Trypanosoma cruzi) was over 100 µM, the “MABA MIC” value [5] was 43.6 µg/mL and the MIC [5] was under 50 µg/mL. For the same compound, the CC50 at 48 h [6, 7] was over 100 µM.

For O=C(N/N=C/c1ccc([N+](=O)[O-])o1)c1ccc(O)cc1 [Nfz, Nifuroxazide], the IC50 [1] was 10.4 ± 1.6 µM, the IC50 ([1]; Trypanosoma cruzi) was 10.4 µM and the IC50 [2] was 51.2 ± 4.2 µM. For the same compound, the “IC50 L. mexicana M379” value [3] was “no leishmanicidal effects”, the IC50 ([3]; Leishmania mexicana) was over 200 µM and the IC50 ([4]; Trypanosoma cruzi) was 36 ± 1.2 µM. The “MABA MIC” value [5] was 12.3 µg/mL, the MIC [5] was under 20 µg/mL and the CC50 at 48 h ([6]; J774.2 macrophage cells, J774.2 macrophages, 48 h, MTT, read-out: Cytotoxicity (CC50) Macrophages J774.2) was 42.2 ± 2.3 µM.

COc1ccc(/C=N/NC(=O)c2ccc(O)cc2)cc1 [Nfz-11] showed an IC50 [1] of 18.2 ± 1.4 µM, an IC50 ([1]; Trypanosoma cruzi) of 18.1 µM and an IC50 [2] of over 200 µM. It also gave an IC50 ([3]; Leishmania mexicana) of over 200 µM, an IC50 [4] of 28.2 ± 1.4 µM and an IC50 ([4]; Trypanosoma cruzi) of 28.2 µM. For the same compound, the MIC [5] was over 100 µg/mL and the CC50 at 48 h [6, 7] was 46.6 ± 4.9 µM.

For O=C(N/N=C/c1ccco1)c1ccc(O)cc1 [Nfz-4], the IC50 [1] was 28.9 ± 3.4 µM, the IC50 ([1]; Trypanosoma cruzi) was 28.8 µM and the IC50 [2] was over 200 µM. For the same compound, the IC50 ([3]; Leishmania mexicana) was 83.9 ± 6.9 µM, the IC50 [4] was 19 ± 2.1 µM and the IC50 ([4]; Trypanosoma cruzi) was 18.8 µM. The MIC [5] was over 100 µg/mL and the CC50 at 48 h [6, 7] was over 100 µM.

For O=C(N/N=C/c1ccc2ccccc2c1)c1ccc(O)cc1 [Nfz-20], the IC50 [1] was 24.5 ± 2 µM, the IC50 ([1]; Trypanosoma cruzi) was 24.4 µM and the IC50 [2] was over 200 µM. The IC50 [3] was 28.4 ± 2.8 µM, the IC50 ([3]; Leishmania mexicana) was under 30 µM and the “IC50 T. cruzi NINOA” value [4] was “loss of the activity”. The IC50 ([4]; Trypanosoma cruzi) was over 100 µM, the MIC [5] was over 100 µg/mL and the CC50 at 48 h [6, 7] was 88.3 ± 3.9 µM.

O=C(N/N=C/c1ccccc1[N+](=O)[O-])c1ccc(O)cc1 [Nfz-19] showed an IC50 [1] of 42.5 ± 6.7 µM, an IC50 ([1]; Trypanosoma cruzi) of 42.4 µM and an IC50 [2] of over 200 µM. It also gave an IC50 [3] of 146.7 ± 0.7 µM, an IC50 ([3]; Leishmania mexicana) of over 100 µM and an IC50 [4] of 36.5 ± 2.2 µM. It also gave an IC50 ([4]; Trypanosoma cruzi) of 36.4 µM, an MIC [5] of over 100 µg/mL and a CC50 at 48 h [6, 7] of over 100 µM.

Work on O=C(N/N=C/c1ccc(Cl)cc1)c1ccc(O)cc1 [Nfz-16] yielded an IC50 [1] of 40.2 ± 2.7 µM, an IC50 ([1]; Trypanosoma cruzi) of under 50 µM and an IC50 [2] of 78.1 ± 3.6 µM. For the same compound, the IC50 [3] was 67.5 ± 4 µM, the IC50 ([3]; Leishmania mexicana) was over 60 µM and the “IC50 T. cruzi NINOA” value [4] was “loss of trypanocidal activity”. The IC50 ([4]; Trypanosoma cruzi) was over 100 µM, the “MABA MIC” value [5] was 46.4 µg/mL and the MIC [5] was under 50 µg/mL. The CC50 at 48 h [6, 7] was 83.2 ± 3.2 µM.

With CC1CS(=O)(=O)CCN1/N=C/c1ccc([N+](=O)[O-])o1 (stereo not drawn) [Nifurtimox, reference compound] the IC50 ([1]; Trypanosoma cruzi) was 19.3 ± 0.8 µM, the IC50 [4] was 7.09 ± 0.2 µM and the IC50 ([4]; listed as Nfx) was 7 µM. For the same compound, the IC50 ([4]; Trypanosoma cruzi) was over 7 µM.

CC(=O)NC[C@H]1CN(c2ccc(N3CCOCC3)c(F)c2)C(=O)O1 [Linezolid, reference compound] showed an MIC [5] of 0.33 µg/mL (≈ 0.978 µM).

Reference: PMC12114619, “Nifuroxazide and 4-Hydroxybenzhydrazone Derivatives as New Antiparasitic (Trypanosoma cruzi and Leishmania mexicana) and Anti-Mycobacterium tuberculosis Agents” (Pharmaceutics, 2025)
